Measurements: patent publication US8080235B2, “Protein kinase A reporters useful in high throughput assays” (The Johns Hopkins University, priority 2005, dated 2011)
Like-named read-outs stand apart in the source and are kept apart here.

How the values were obtained:
PKA activity [1] = assay: AKAR3 live cell 96-well plate reader assay (yellow/cyan emission ratio); format: cell-based; details: for increase in yellow-to-cyan emission ratio of AKAR3: HEK-203 (sic) cells expressing AKAR3, 96-well plate, n=3
Procedure: (§1) Live Cell Plate Reading. HEK-293 cells were transfected with AKAR3 or ICUE3 using calcium phosphate at 40% confluency and grown for 40 hours. Cells were then trypsinized and plated in a Costar 3603 96-well plate (Corning) at a density of 150,000 cells per well. After incubation for another 24 hours, cells were washed once with HBSS and left in 150 μl of HBSS at 20-25° C. Fluorescence reading was taken on a FLUOstar OPTIMA fluorescence microplate reader (BMG Labtechnologies Inc.) using a 420DF20 excitation filter and two emission filters (470DF40 for cyan and 535DF25 for yellow). A baseline was established in three cycles, each consisting of a full plate reading of yellow intensity, followed by a reading of cyan intensity.
(§2) Each cycle lasted between 64 and 92 seconds. Cells were then treated with ISO, Fsk, H89, Propranolol (Pro; Sigma), or 3-isobutyl-1-methylxanthine (IBMX; Sigma) as indicated. Readings were taken in additional cycles. FRET change was calculated as the percent increase of emission ratios (yellow-to-cyan for AKAR and cyan-to-yellow for ICUE) over baseline for each well during a given cycle. Several parameters were calculated to assess the efficiency of the assay, including Z′ factor, coefficient of variation, and signal to noise (S/N) ratio (22).
AKAR2 (FIG. 4). This reporter, AKAR3 (FIG. 1b), was tested in a 96-well plate format. […] As negative controls, addition of buffer of 2% DMSO generated minimal changes in emission ratios. This 96-well plate assay was sensitive and reproducible, with a signal to noise ratio of 30.3, a Z′ factor of 0.84, and a coefficient of variation (CV) of 1.8% for the Fsk-stimulated response.
To provide specific readout of compartmentalized PKA activities, we introduced a C-terminal nuclear export signal (NES) to AKAR3 . In the plate reader assay using AKAR3 -NES (FIG. 1d), cytosolic PKA activity was recorded without contamination of nuclear activity, which has slower kinetics due to diffusional translocation of the catalytic subunit from cytosol to nucleus. […] Thus, sensor targeting provides increased temporal and spatial resolution and can be used to reveal how individual signaling microdomains, such as kinase-containing signaling complexes, are affected by drugs or other perturbations, adding another level of capacity to the non-image-based high-throughput assays of the invention.

PKA activity [2] = assay: AKAR single-cell live imaging in HEK-293 cells; format: cell-based; details: for AKAR3 response in single cell imaging: HEK-293, 10 μM epinephrine, 50 μM ritodrine, IBMX alone
Procedure: Cell Culture and Imaging. HEK-293 cells were plated onto sterilized glass coverslips in 35 mm dishes and grown to ˜50% confluency in DMEM (10% FBS at 37° C. with 5% CO2). Cells were transfected with calcium phosphate and grown for 12-24 hours before imaging. After washing once with Hanks' balanced salt solution (HBSS), cells were maintained in buffer in the dark at 20-25° C. Isoproterenol (ISO; Sigma), forskolin (Fsk; Calbiochem), H89 (Sigma) were added as indicated. Cells were imaged on a Zeiss Axiovert 200M microscope with a 40×/1.3NA oil-immersion objective lens and cooled CCD camera as described in (21). Briefly, dual emission ratio imaging used a 420DF20 excitation filter, a 450DRLP dichroic mirror, and two emission filters (475DF40 for cyan and 535DF25 for yellow). The ratios of yellow-to-cyan (for AKAR) or cyan-to-yellow (for ICUE) emissions were then calculated at different time points and normalized by dividing all ratios by the emission ratio before stimulation, setting basal emission ratio as 1.
One of the important advantages of genetically encoded reporters of the invention is that they can be targeted to subcellular locations via various targeting motifs. However, in some cases, subcellular targeting may sacrifice the response amplitude of a reporter. To determine whether the improved dynamic range of AKAR3 leads to sensitive detection of subcellular PKA activities, AKAR3 was targeted to two cellular compartments.

cAMP [3] = assay: ICUE3 live cell high-throughput cAMP plate reader assay (cyan/yellow emission ratio); format: cell-based
Procedure: as §1, §2
To follow the activity of the signaling pathway and to assay related drug targets in parallel, we developed a live cell-based high-throughput assay for cAMP, a second messenger that is generated via activation of Gs-coupled GPCRs and exerts its effects by activating PKA and other effectors. Similar improvement approaches were first applied to create a reporter that more than doubled the response of previous “Indicator for cAMP Using Epac” (ICUE), which generates a decrease in FRET upon binding of cAMP (FIG. 5). […] Possible sources of the variation and reduced signal are transfection efficiency and expression variability.

PKA activity [4] = assay: AKAR3 high-throughput screening of Johns Hopkins Clinical Compound Library; format: cell-based; details: for agonist screen: AKAR response to compound alone: 10 μM, hit = larger than 6 times the standard deviation above negative control
Procedure: Live Cell High-Throughput Screening. […] After incubation for 24 hours, cells were washed once with HBSS and left in 190 μl of HBSS at 20-25° C. Fluorescence readings were taken as described above, with each cycle lasting 90 seconds. Following baseline acquisition, cells in each experimental well were treated with a compound from the Johns Hopkins Clinical Compound Library to a final concentration of 10 μM. Control cells were treated with 10 μL of 10% fetal bovine serum (FBS) in a solution of phosphate buffered saline (PBS) at pH 7.4, which is the solution used to dissolve library compounds.
Ten final cycles were then performed.
FRET responses were calculated as described above. […] Agonist hits were defined as compounds eliciting responses larger than six times the standard deviation above the baseline. Antagonist hits were defined as compounds which decreased the ISO stimulated response by 50% or by six times the standard deviation.
In a primary screening, 160 compounds from the Johns Hopkins Clinical Compound Library were added to AKAR3-expressing HEK-293 cells in individual wells of 96-well plates to a final concentration of 10 μM after a base line reading. Time courses were recorded to monitor any fluorescence changes upon drug addition and to identify hits which activate PKA as potential agonists.
Potential agonists were identified by selecting compounds which stimulated emission ratio changes larger than 6 times the standard deviation above the negative control (FIG. 3a ).

catalytic subunit of PKA = catalytic subunit of PKA (Homo sapiens, UniProt P17612); assay: In vitro kinase assay with purified AKAR3 protein; format: biochemical; details: n=2
Procedure: FIG. 7. Further characterization of AKAR3. Representative time courses of plasma membrane-targeted AKAR3 (FIG. 7a ) and nuclear-targeted AKAR3 (FIG. 7b ) in HEK-293 cells stimulated with 1 μM ISO and 50 μM FSK, respectively. FIG. 7c , AKAR3-expressing HEK-293 cells were treated with 200 nM phorbol dibutyrate (PDBu), a protein kinase C activator, followed by the addition of 1 μM isoproterenol, then 50 μM forskolin. FIG. 7d , representative time courses of the emission ratio change of AKAR3 in the presence (closed squares) and absence (open circles) of the specific PKA inhibitor, PKI. FIG. 7e , emission spectra of the purified AKAR3 before (squares) and after (diamonds) phosphorylation by PKA (excitation 434 nm). The curve using triangle symbols depicts the spectrum of the reporter after digestion with trypsin to quench the energy transfer and quantify the FRET. FIG. 7f , a representative phosphorylation time course for purified AKAR3 protein in the presence of PKA catalytic subunit and 1 mM ATP.
Lastly, in vitro kinase assays were carried out using purified AKAR3 protein from mammalian cell lysates.

cAMP [5] = assay: ICUE single cell imaging, ISO stimulation in the presence of IBMX; format: cell-based; details: FIG. 3e, read-out: inhibition of ISO-stimulated ICUE response
Procedure: FIG. 3. High-throughput screening. FIG. 3A, normalized emission ratio (yellow/cyan) from cells expressing AKAR3 treated with individual library compounds, compared to the negative control in which only buffer was added and the positive control in which ISO (250 nM) was added (agonist screen). Individual bars along the X axis represent individual library compounds. The asterisks indicate responses of ritrodrine, ISO, and epinephrine. FIG. 3B, normalized emission ratio (yellow/cyan) from cells expressing AKAR3 first treated with individual library compounds for about 15 minutes, then stimulated by ISO (250 nM) (antagonist screen). The positive control in which only ISO was added and the negative control in which only buffer was added are shown as labeled. Individual bars along the X axis represent individual library compounds. The asterisks indicate responses from epinephrine and propranolol treated cells in response to ISO. FIG. 3C, representative time courses of emission ratio (yellow/cyan) change of cells expressing AKAR3 treated with 10 μM epinephrine followed by 50 μM FSK in single-cell imaging experiments. […]
Cell Culture and Imaging. […] The ratios of yellow-to-cyan (for AKAR) or cyan-to-yellow (for ICUE) emissions were then calculated at different time points and normalized by dividing all ratios by the emission ratio before stimulation, setting basal emission ratio as 1. […]

Compound: O=S(=O)(NCCNC/C=C/c1ccc(Br)cc1)c1cccc2cnccc12 [H89]
- effect on Fsk-stimulated AKAR3 response (PKA activity [1]; FIG. 2d): diminished
- effect on AKAR3 response (PKA specificity) (PKA activity [2]; PKI co-expression or H89 pretreatment): abolished
- effect on Fsk-stimulated ICUE3 response (cAMP [3]; FIG. 2c): increased the ICUE3 response

Compound: CC(NCCc1ccc(O)cc1)C(O)c1ccc(O)cc1 (stereo not shown) [ritodrine]
- AKAR3 response in single cell imaging (PKA activity [2]): moderate and gradual response
- agonist screen: AKAR response to compound alone (PKA activity [4]): stimulated AKAR responses on their own

Compound: AKAR3: PKA reporter fusion protein SEQ ID NO:1: ECFP 1-227, FHA1, PKA substrate linker SEQ ID NO:3, circularly permuted Venus
- increase in emission ratio (yellow over cyan) of the reporter (PKA activity [2]): about 40%
- emission ratio increase after addition of ATP (catalytic subunit of PKA; purified AKAR3, PKA catalytic subunit, 1 mM ATP, approximately 40 minutes): 29.1%±1.11%
- FRET efficiency after phosphorylation (catalytic subunit of PKA; quantified using trypsin): 47.2%±7.67%
- FRET efficiency before phosphorylation (catalytic subunit of PKA; quantified using trypsin): 38.8%±7.36%

Compound: C=CC1=C(C)/C(=C/c2[nH]c(Cc3[nH]c(/C=C4\NC(=O)C(C)=C4C=C)c(C)c3CCC(=O)O)c(CCC(=O)O)c2C)NC1=O [bilirubin]
- inhibition at 1 µM (cAMP [5]; 1 μM bilirubin): 40%
- inhibition at 10 µM (cAMP [5]; 10 μM bilirubin): > 60%

Compound: CC(C)Cn1c(=O)n(C)c(=O)c2[nH]cnc21 [IBMX, 3-isobutyl-1-methylxanthine]
- effect of supplementing on AKAR3 responses (PKA activity [1]; FIG. 2): sustained responses and increased their amplitude
- effect on ritodrine-stimulated AKAR3 response (PKA activity [2]; 100 μM IBMX after 50 μM ritodrine, FIG. 3d): enhanced
- AKAR3 response in single cell imaging (PKA activity [2]): did not generate any AKAR responses
- effect of supplementing on ICUE3 responses (cAMP [3]; FIG. 2): sustained responses and increased their amplitude

Compound: AKAR3.2: PKA reporter fusion protein SEQ ID NO:4: cerulean fluorescent protein, FHA1, SEQ ID NO:3, circularly permuted YFP variant
- dynamic range of the reporter (PKA activity [2]): 55-65%

Compound: C=C[C@@]1(C)CC(=O)[C@]2(O)[C@@]3(C)[C@@H](O)CCC(C)(C)[C@@H]3[C@H](O)[C@H](OC(C)=O)[C@@]2(C)O1 [Fsk, forskolin]
- increase in yellow-to-cyan emission ratio of AKAR3 (PKA activity [1]): 25.7%±0.7%
- average nuclear response of nuclear-targeted AKAR3 (PKA activity [2]; HEK-293, 50 μM FSK, n=3, slower kinetics, FIG. 7b): 38.6%±8.45%
- Emax (cAMP [3]; stable cell line, read-out: maximum response of ICUE assay): 43.3%
- Emax (cAMP [3]; transient transfection, Fsk in the presence of 100 μM IBMX, FIG. 2c, read-out: maximum response of ICUE3): 24.1%

Compound: CNC[C@H](O)c1ccc(O)c(O)c1 [epinephrine]
- AKAR3 response in single cell imaging (PKA activity [2]): stimulates cAMP production and PKA activation
- antagonist screen: effect on ISO-stimulated AKAR response (PKA activity [4]; 10 μM compound about 15 min, then 0.25 μM ISO): decreased the cell response to subsequent stimulation by ISO
- agonist screen: AKAR response to compound alone (PKA activity [4]): stimulated AKAR responses on their own

Compound: CC(C)NCC(O)c1ccc(O)c(O)c1 (stereo not shown) [ISO, isoproterenol]
- emission ratio change with AKAR3-NES compared to the AKAR3 assay (PKA activity [1]; AKAR3-NES, plate reader, FIG. 1d): larger increase in emission ratio followed by a more rapid decrease
- increase in yellow-to-cyan emission ratio of AKAR3 (PKA activity [1]): 22.1%±0.7%
- average response of plasma membrane-targeted AKAR3 (PKA activity [2]; HEK-293, 1 μM ISO, n=3, FIG. 7a): 34.3%±5.4%
- maximum response (emission ratio elevation) of AKAR3.2 (PKA activity [2]; HEK-293 cells expressing AKAR3.2, 1 μM ISO, FIG. 6): approximately 65%
- agonist screen: AKAR response to compound alone (PKA activity [4]): stimulated AKAR responses on their own
